According to ChEMBL document CHEMBL5390209, “Spinosyn A and Its Derivative Inhibit Colorectal Cancer Cell Growth via the EGFR Pathway” (J Nat Prod, 2023):
Active and inactive are the calls of the source. The rule behind the calls is not given here.

How the values were obtained:
HT-29 [1] = assay: Antitumor activity against human HT-29 cells xenografted Balb/c mouse assessed as inhibited tumor growth at 10 mg/kg/day, ip administrated for twice a week and measured after 6 days; type: functional, organism-based; details: time 6.0 day
[2] = Toxicity in human HT-29 cells xenografted Balb/c mouse assessed as change in body weight at 10 mg/kg/day, ip administrated for twice a week and measured after 6 days; type: organism-based; details: in vivo, 144 h, time 6 day
HT-29 [3] = assay: Antitumor activity against human HT-29 cells xenografted Balb/c mouse assessed as reduction in tumor growth at 10 mg/kg/day, ip administrated for twice a week and measured after 28 days; type: functional, organism-based; details: time 28.0 day
HT-29 [4] = assay: Antitumor activity against human HT-29 cells xenografted Balb/c mouse assessed as reduction in tumor cell density at 10 mg/kg/day, ip administrated for twice a week and measured after 28 days by Hematoxylin and Eosin staining based method; type: functional, organism-based; details: time 28.0 day
HT-29 [5] = assay: Antitumor activity against human HT-29 cells xenografted Balb/c mouse assessed as reduction in Ki67 expression level at 10 mg/kg/day, ip administrated for twice a week and measured after 28 days by immunohistochemistry staining method; type: functional, organism-based; details: time 28.0 day
[6] = Toxicity in human HT-29 cells xenografted Balb/c mouse assessed as change in liver pathology at 10 mg/kg/day, ip administrated for twice a week and measured after 28 days; type: organism-based; details: in vivo, 672 h, time 28 day
[7] = Toxicity in human HT-29 cells xenografted Balb/c mouse assessed as change in heart pathology at 10 mg/kg/day, ip administrated for twice a week and measured after 28 days; type: organism-based; details: in vivo, 672 h, time 28 day
[8] = Toxicity in human HT-29 cells xenografted Balb/c mouse assessed as change in spleen pathology at 10 mg/kg/day, ip administrated for twice a week and measured after 28 days; type: organism-based; details: in vivo, 672 h, time 28 day
[9] = Toxicity in human HT-29 cells xenografted Balb/c mouse assessed as change in lung pathology at 10 mg/kg/day, ip administrated for twice a week and measured after 28 days; type: organism-based; details: in vivo, 672 h, time 28 day
[10] = Toxicity in human HT-29 cells xenografted Balb/c mouse assessed as change in kidney pathology at 10 mg/kg/day, ip administrated for twice a week and measured after 28 days; type: organism-based; details: in vivo, 672 h, time 28 day
HT-29 [11] = assay: Inhibition of EGFR in human HT-29 cells xenografted in BALB/c nude mouse assessed as EGFR protein level in tumor at 10 mg/kg/day, ip administrated for twice a week and measured after 28 days by Western blotting analysis; type: functional, organism-based; details: time 28.0 day
HT-29 [12] = assay: Inhibition of HER2 in human HT-29 cells xenografted in BALB/c nude mouse assessed as HER2 protein level in tumor at 10 mg/kg/day, ip administrated for twice a week and measured after 28 days by Western blotting analysis; type: functional, organism-based; details: time 28.0 day
HT-29 [13] = assay: Inhibition of EGFR in human HT-29 cells xenografted in BALB/c nude mouse assessed as reduction in EGFR protein expression level in tumor at 10 mg/kg/day, ip administrated for twice a week and measured after 28 days by Western blotting analysis; type: functional, organism-based; details: time 28.0 day
HT-29 [14] = assay: Inhibition of HER2 in human HT-29 cells xenografted in BALB/c nude mouse assessed as HER2 protein expression level in tumor at 10 mg/kg/day, ip administrated for twice a week and measured after 28 days by Western blotting analysis; type: functional, organism-based; details: time 28.0 day

O=c1[nH]cc(F)c(=O)[nH]1 [FLUOROURACIL]
inhibition (HT-29 [1]): Active | Activity [2]: Non-Toxic | Activity (HT-29 [3]): Active | Activity (HT-29 [4]): Active | Activity (HT-29 [5]): Active | Activity [6]: Non-Toxic | Activity [7]: Non-Toxic | Activity [8]: Non-Toxic | Activity [9]: Non-Toxic | Activity [10]: Non-Toxic | inhibition (HT-29 [11]): Active | inhibition (HT-29 [12]): inactive | inhibition (HT-29 [13]): Active | inhibition (HT-29 [14]): inactive
